# In patent US6890533B2, “Betulinol derivatives” (Cornell Research Foundation, Inc., priority 1997, dated 2005):
# Key:
# [1] = system: WALKER-CARCINOMA (carcinosarcoma); test: anti-carcinogenic activity in rats implanted with Walker carcinoma; type: in vivo, white rats; details: for ALL, % of control / ALL (Average length of life) / % cured: rats; for ALL (Average length of life): injected daily for 5 days; for % cured: cured rats lived over two months after implantation
# Protocol: The anti-carcinogenic activity of betulinol biacetate and betulonic aldehyde was assessed using 117-120 gram white rats implanted with worker's carcinoma and 21-23 gram white mice with artificially transplanted Ehrlich's tumor.
# Solutions of 2.5% betulonic aldehyde and 0.05% betulinol biacetate were prepared in 10% polyvinylpyrrolidone containing Tween-80 (a sorbitan mono-9-octadecenate poly(oxy-1,2-ethanediyl)) stabilizer.
# Mice were injected with 0.1-0.2 ml of either betulinol biacetate or betulonic aldehyde solution daily, starting 24 hours after transplantation, for the following 5 days. Rats were injected with 1.2 ml of either betulinol biacetate or betulonic aldehyde solution daily, starting 24 hours after implantation, for the following 5 days. Animals in control groups received the same amount of a 10% solution of polyvinylpyrrolidone.
# The anti-tumor effect of betulinol acetate or betulonic aldehyde was determined by measuring the volume of the tumor on the 10th day after implantation. An average length of life (“ALL”) was calculated for each of the deceased animals. In addition, the percentage of cured rats was also determined.
# The volume of the tumor was measured and calculated as a multiple of the quadrate of its similar diameter by the greater diameter. Thus, the effect was expressed as a ratio (“E/C”), in percent, of the tumor volume in rats treated with betulinol acetate or betulonic aldehyde (“E”) and the tumor volume in control rats (“C”). The effect of betulinol acetate or betulonic aldehyde on ALL was evaluated the same way.
# [2] = BBA solubility in organic solvents; type: physicochemical; details: for BBA Mass Content, %, at 20° C.: mass % in organic solvent
# Protocol: Studies of betulinol biacetate solubility were conducted in order to determine the appropriate solvent for product crystallization and purification.
# [3] = Group 1, Dose/day 204.6 (mg/kg body weight)
# [4] = Group 2, Dose/day 106.9 (mg/kg body weight)
smiles,measurement,setting,value
"C=C(C)[C@@H]1CC[C@]2(COC(C)=O)CC[C@]3(C)[C@H](CC[C@@H]4[C@@]5(C)CC[C@H](OC(C)=O)C(C)(C)[C@@H]5CC[C@]43C)[C@@H]12 [Betulinol diacetate, Betulinol Biacetate]","ALL, % of control",[1]; [3],131.3%
same,ALL (Average length of life),[1]; [3],28.5 days
same,% cured,[1]; [3],50.0%
same,"ALL, % of control",[1]; [4],200.5%
same,ALL (Average length of life),[1]; [4],43.5 days
same,% cured,[1]; [4],67.0%
same,"rate of the tumor growth inhibited, of the control group","[1]; tumor volume on the 10th day, versus control group",55.2%
same,"BBA Mass Content, %, at 20° C.",[2]; Benzene,100%
same,"BBA Mass Content, %, at T (° C.)","[2]; Butanol, T 95 ° C.",100%
same,"BBA Mass Content, %, at 20° C.",[2]; Chloroform,100%
same,"BBA Mass Content, %, at 20° C.",[2]; Dimethylsulfoxide,30%
same,"BBA Mass Content, %, at T (° C.)","[2]; Dimethylsulfoxide, T 189 ° C.",100%
same,"BBA Mass Content, %, at T (° C.)","[2]; Dioxane, T 101 ° C.",100%
same,"BBA Mass Content, %, at 20° C.",[2]; Hexane,15%
same,"BBA Mass Content, %, at 20° C.",[2]; Toluene,100%
